From patent publication US9962430B2, “Methods for treating pain associated with chronic pancreatitis” (priority 2012, dated 2018)

Experiments:
patients with CP = settings: cited from earlier work
[1] = system: patients with type B pain from chronic pancreatitis; assay: Phase II dose-escalation trial: 10 point visual analogue scale (VAS) pain assessment; type: in vivo, human; settings: for mean pain score (VAS): all patients, baseline mean VAS 5.79; for Pain (VAS 0-10), mean: 100 min post dose, baseline 6.04
[2] = system: patients with type B pain from chronic pancreatitis; assay: Phase II dose-escalation trial: daily opioid use converted to morphine equivalents; type: in vivo, human; settings: for daily opioid usage (oral morphine equivalents): baseline 136 mg
[3] = system: patients with type B pain from chronic pancreatitis; assay: Phase II dose-escalation trial: quality of life by SF-36 score; type: in vivo, human; settings: for mean SF-36 score: baseline 101.3
[4] = 800 CU (160 mcg) twice daily for seven days, drug administration arm

depot secretin: subcutaneous depot secretin, 800 CU (160 mcg) twice daily, Tympner and Rosch 1986
serum amylase levels (patients with CP; 800 CU (160 mcg) twice daily for seven days): strong trend towards decreased
lactoferrin (patients with CP; [4]): decreased
trypsin (patients with CP; [4]): decreased
viscosity of pancreatic secretion (patients with CP; [4]): decreased
pain levels at the end of the study (patients with CP; 800 CU (160 mcg) twice daily injection for seven days, p<0.05): significantly improved

sHS: ChiRhoStim (human secretin for injection) provided by ChiRhoClin Inc.; 27 amino acid gastrointestinal peptide hormone
mean pain (VAS), female subgroup ([1]; day 30, females, baseline 5.42, p=0.07): 3.67
optimal dosing based on the change in the VAS score ([1]; dose-escalation 0.05-0.8 mcg/kg IV bolus): 0.4 µg/kg
mean pain score (VAS) ([1]; post-treatment day 4, p=0.25 vs baseline, IV bolus 3x/day for 3 days): 4.80
mean pain score (VAS) ([1]; post-treatment day 10, p=0.19 vs baseline): 4.72
mean pain score (VAS) ([1]; post-treatment day 30, p=0.27 vs baseline): 4.90
Pain (VAS 0-10), mean ([1]; sHS dose 0.05 μg/kg): 4.92
Pain (VAS 0-10), mean ([1]; sHS dose 0.1 μg/kg): 5.06
Pain (VAS 0-10), mean ([1]; sHS dose 0.2 μg/kg): 4.92
Pain (VAS 0-10), mean ([1]; sHS dose 0.4 μg/kg): 4.5
Pain (VAS 0-10), mean ([1]; sHS dose 0.8 μg/kg): 5.36
daily opioid equivalent, females ([2]; Day 30, females, baseline 107 mg, p=0.53): 84 mg
daily opioid usage (oral morphine equivalents) ([2]; day 4 post-therapy, p=0.52): 111 mg
daily opioid usage (oral morphine equivalents) ([2]; day 30 post-therapy, p=0.34): 104 mg
mean SF-36 score ([3]; day 4): 100.9
mean SF-36 score ([3]; day 30): 101.5
quality of life as measured by SF-36 with therapy ([3]; overall statement): unaltered
